Assay results taken from patent US10610562B2, “Instant water soluble bioactive dietary phytonutrients composition of spice/herb extracts and a process for its preparation” (AKAY FLAVOURS & AROMATICS PVT. LTD, priority 2014, dated 2020).
In brackets after ≈: the same amount, converted by molar mass.

Tests used:
[1] = Superoxide radical anion scavenging activity; format: biochemical
Procedure: McCord and Fridovich, (1969), measure super oxide radical anion scavenging activity. Briefly, 1 mg/mL spice extract stock solution was prepared in distilled water. The reaction mixture contained 200 μL KCN [dissolved in EDTA (6 mM)], 50 μL riboflavin (0.12 mM), 100 μL NBT (1.5 mM) and various concentrations (1-10 μg/mL) of the extract and add Phosphate buffer made up to 3 mL. The tubes containing the reaction mixture were uniformly illuminated with an incandescent lamp for 15 minutes. The absorbance was measured at 530 nm before and after the illumination. Percent inhibition of superoxide radical was calculated using the equation: […] Mix well and this was given to five volunteer for sensory evaluation. The sample was first de-oiled and its antioxidant level was check using DPPH, ABTS, & SOD method comparing with plain potato chips.

[2] = Hydroxyl radical scavenging activity; format: biochemical
Procedure: Hydroxyl radical scavenging activity of the extract was measured by following the method of Elizabeth and Rao, (1990). Briefly, 1 mg/mL spice extract stock solution was prepared in distilled water and mixed with the reaction mixture containing deoxyribose (2.8 mM), ferric chloride (0.1 mM) EDTA (0.1 mM), H2O2 (1 mM), ascorbate (0.1 mM), and KH2PO4—KOH (20 mM, pH 7.4) at various concentrations (1-10 μg/mL) to a total volume of 1 mL and incubated for 1 hr at 37° C. Absorbance of each solution was measured at 530 nm using a UV/VIS spectrophotometer against the distilled water as reference. From the absorbance of the control and test solution, percentage inhibition was calculated.

[3] = tested on: rat liver homogenate; assay: Lipid peroxidation assay; format: biochemical
Procedure: The level of lipid peroxidation was measured by the method of Ohkawa et al (1979). Briefly, 1 mg/mL spice extract stock solution was prepared in distilled water. Various concentrations (1-10 μg/mL) of extract were incubated with 0.1 mL rat liver homogenate (25%) containing 30 mM KCl, Tris-HCl buffer (0.04 M, pH 7.0), ascorbic acid (0.06 mM) and ferrous ion (0.16 mM) in a total volume 0.5 mL for 1 hr. After incubation, 0.4 mL of reaction mixture was treated with 0.2 mL SDS (8.1%), 1.5 mL TBA (0.8%) and 1.5 mL acetic acid (20%, pH 3.5) distilled water were kept for 1 hr in a boiling water bath at 100° C. […] Absorbance of the clear supernatant was measured at 532 nm against pyridine:butanol. Percent inhibition of lipid peroxidation was calculated using the equation: […]

[4] = DPPH assay; format: biochemical
Procedure: Briefly, various concentrations of the extract were added to 1 mL of freshly prepared DPPH solution in methanol. The reaction mixture was made up to 2 mL with methanol; incubated for 20 minutes; read at 515 nm against methanol as reference. The percentage inhibition was calculated and concentration needed for 50% inhibition was found out. […] Mix well and this was given to five volunteer for sensory evaluation. The sample was first de-oiled and its antioxidant level was check using DPPH, ABTS, & SOD method comparing with plain potato chips.

[5] = ABTS assay; format: biochemical
Procedure: Keep ABTS solution at Room temperature for 16 hours, and then store it at 4° C. (if not use). Take 500 μL, ABTS solution and add 50 mL PBS; adjust the OD to 0.7-0.8 against PBS as reference at 734 nm. Take 1 mL ABTS solution with different varies concentration of the extracts (1 mg/mL spice extract stock solution was prepared in distilled water) and made up to 2 mL with PBS. Keep the sample at room temperature for 6 minutes. The absorbance was measured at 734 nm. The results were calculated from the slopes of reaction curves obtained by plotting the absorbance Vs time. […] Mix well and this was given to five volunteer for sensory evaluation. The sample was first de-oiled and its antioxidant level was check using DPPH, ABTS, & SOD method comparing with plain potato chips.

[6] = tested on: carrageenan induced paw oedema; assay: In vivo anti-inflammatory potential, carrageenan induced paw oedema model; set-up: species or system Swiss albino mice; details: reference drug at dose 50 mg/kg body weight
Procedure: The animals for experimental model were taken from small breeding station of Amala Cancer Research Centre, Thrissur (Registration No. 149/99/CPCSEA) and […] Institute of Medical Science, Kochi (Registration No. 527/02/a/CPCSEA). The animals were kept in air-conditioned room at 22±2° C. and relative humidity […] with 12 hours day and light cycle, fed with normal mouse chow, a natural ingredient diet (Sai Feeds, India) and water ad libitum. All animal experiments were performed according to the rules and regulations of the Committee for the Purpose of Control and Supervision of Experiments on Animals (CPCSEA), Government of India. Five groups each contained six Male Swiss albino mice (25-30 g) in each group were injected with 25 μL of 1% suspension of carrageenan in 0.1% carboxy methylcellulose (CMC) sub-planetary into right hind paw. Paw volume was measured at various time intervals such as, paw volume before inflammation induction, then for 1, 2, 3, 4, 5 and 24 hours after carrageenan administration using a vernier calliper. Clove extract at doses 25, 50 and 100 mg/kg body weight was administered (orally) 1 hour prior to carrageenan injection. […] The percentages of inhibition were calculated according to the following formula. […] Where, VT-Paw oedema at various time intervals and Vo-Initial paw oedema [table]

| IC50, superoxide radical anion scavenging [1] [µg/mL] | IC50, hydroxyl radical scavenging [2] [µg/mL] | IC50, lipid peroxidation [3] [µg/mL] | IC50, DPPH [4] [µg/mL] | IC50, ABTS [5] [µg/mL] | SMILES | inhibition of paw oedema [6] [%] |
| --- | --- | --- | --- | --- | --- | --- |
| 1900 (≈ 10800 µM) | 1550 (≈ 8800 µM) | 375 (≈ 2130 µM) | 14 (≈ 79.5 µM) | 2.25 (≈ 12.8 µM) | O=C1O[C@H]([C@@H](O)CO)C(O)=C1O [Vitamin C] |  |
|  |  |  |  |  | O=C(O)Cc1ccccc1Nc1c(Cl)cccc1Cl [diclofenac, Diclofenac] | 56.70 |
